From paper PMC4252796 (Molecular and biochemical parasitology, 2014)

Molecular target: T1, LmjPEM1 (Leishmania major, UniProt Q4Q5U4)
T1 sequence (Q4Q5U4 1-582): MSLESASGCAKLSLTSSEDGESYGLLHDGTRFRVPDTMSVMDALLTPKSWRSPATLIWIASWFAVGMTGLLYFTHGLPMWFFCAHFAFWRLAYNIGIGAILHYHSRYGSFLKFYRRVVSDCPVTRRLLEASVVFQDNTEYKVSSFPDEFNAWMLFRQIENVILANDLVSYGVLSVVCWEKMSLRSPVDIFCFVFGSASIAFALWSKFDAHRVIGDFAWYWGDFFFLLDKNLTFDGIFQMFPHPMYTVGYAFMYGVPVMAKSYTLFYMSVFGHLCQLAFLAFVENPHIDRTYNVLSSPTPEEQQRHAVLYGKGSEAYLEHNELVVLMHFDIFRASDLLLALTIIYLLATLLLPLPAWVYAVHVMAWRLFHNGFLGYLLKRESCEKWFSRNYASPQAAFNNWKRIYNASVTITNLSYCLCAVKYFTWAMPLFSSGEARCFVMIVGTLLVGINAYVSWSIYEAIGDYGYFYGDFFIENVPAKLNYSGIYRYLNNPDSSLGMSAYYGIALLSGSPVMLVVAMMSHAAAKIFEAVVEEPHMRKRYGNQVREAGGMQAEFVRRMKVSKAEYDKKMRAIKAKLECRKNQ
Assay: radiometric PEMT assay, 3H-SAM incorporation into total lipids, yeast extract
Type: biochemical
Details: endogenous yeast PE as substrate; 0.1 M TrisHCl pH 7.5, 30°C, 50 min

SMILES	% activity at 10 or 100 μM
CCCCCCCCCCCCCCCCCC[N+](C)(C)C [compound 1, octadecyltrimethylammonium bromide]	followed by miltefosine, octadecyltrimethylammonium bromide, and octadecylphosphocholine
CCCCCCCCCCCCCCCC[N+](C)(C)C [compound 2, hexadecyltrimethylammonium bromide]	LmjPEM1 activity was best inhibited by hexadecyltrimethylammonium bromide
C[N+](C)(C)CCO [compound 3, choline]	while choline had a very small effect
CCCCCCCCCCCCCCCCOP(=O)([O-])OCC[N+](C)(C)C [compound 5, miltefosine]	followed by miltefosine, octadecyltrimethylammonium bromide, and octadecylphosphocholine
CCCCCCCCCCCCCCCCCCOP(=O)([O-])OCC[N+](C)(C)C [compound 6, octadecylphosphocholine]	followed by miltefosine, octadecyltrimethylammonium bromide, and octadecylphosphocholine
